Measurements reported in patent US6593335B1, “Potassium channel openers” (Abbott Laboratories, priority 1997, dated 2003).

Biological target: potassium channels (Sus scrofa, UniProt F1SR11)
Test: Functional potassium channel opening activity in isolated Landrace pig bladder strips (field-stimulated twitch)
Conditions: for Landrace Pig Bladder Index: ED50 for P1075 divided by ED50 for the test agonist, averaged over tissues; for Landrace Pig Bladder pD2: negative logarithm of ED50; for Emax: pig; for Emax / Landrace Pig Bladder Efficacy (% P1075): maximal efficacy relative to P1075, field stimulation 0.05Hz, 0.5 milli-seconds at 20 volts
Protocol: The entire bladder was removed and ed into Krebs Ringer bicarbonate solution (composition, mM: NaCl,; dextrose, 1; KCl, 4.7; […] Propranolol (0.004 ed in all of the assays to block […]. The trigonal and dome […]. Strips 3-5 mm wide and 20 mm long were prepared from the cut in a circular fashion. The mucosal layer was removed. One end ationary glass rod and the other to a Grass FT03 transducer at a basal am. Two parallel platinum electrodes were included in the stationary ide field stimulation of 0.05Hz, 0.5 milli-seconds at 20 volts. […] Tissues were allowed to equilibrate for at least 60 minutes and primed with 80 mM KCl. A control concentration response curve (cumulative) was generated for each tissue using the potassium channel opener […] as the control agonist. […] After a 60 minute rinsing period, a concentration response curve (cumulative) was generated for the test agonist in the same fashion as that used for the control agonist […]. The maximal efficacy of each compound (expressed as % relative to […]) is reported. […] J. Physiol. 235, E97 (1980)), and agonist potencies were expressed as pD2 (the negative logarithm). Agonist potencies were also expressed as an index relative to […]. The index was calculated by dividing the ED50 for […] by the ED50 for the test agonist in a given tissue. Each tissue was used for only one test agonist, and the indices obtained from each tissue were averaged to provide an average index of potency.

Row | SMILES | Landrace Pig Bladder Index | Landrace Pig Bladder pD2 | Emax [%] | Landrace Pig Bladder Efficacy (% P1075)
1 | Cc1ccc(C2C3=C(CCCC3=O)NC3=C2S(=O)(=O)CC3)cc1[N+](=O)[O-] (single isomer, unassigned) [Example 126, 9-(4-methyl-3-nitrophenyl)-2,3 5,6,7,9-hexahydro[3. 2-b]guinolin-8(4H)-one, 1,1-dioxide] | 0.20 | 6.3 | 99 | –
2 | O=S1(=O)CCC2=C1C(c1ccc(F)c(Br)c1)C=C(C(F)(F)F)N2 (single isomer, unassigned) [Example 136, 7-(3-bromo-4-fluorophenyl)-5-(trifluoromethyl)-2, 3 4 7-tetrahydrothieno[3 2-b]pyridine, 1,1-dioxide] | 0.073 | 5.9 | 92 | –
3 | O=C1CCC2=C1C(c1ccc(Cl)c(Cl)c1)C1=C(CCS1(=O)=O)N2 (single isomer, unassigned) [Example 146] | 0.40 | 6.7 | 100 | –
4 | O=C1CCCC2=C1C(c1ccc(Br)c(Br)c1)C1=C(CCS1(=O)=O)N2 (single isomer, unassigned) [Example 147, 9-(3.4-dibromophenyl)-2,3,5,6,7,,9-hexahydrothieno[3.2-b]quinolin-8(4H)-one, 1,1-dioxide] | 0.24 | 6.2 | 99 | –
5 | O=C1CCCC2=C1C(c1ccc(F)c(I)c1)C1=C(CCS1(=O)=O)N2 (single isomer, unassigned) [Example 149, 9-(4-fluoro-3-iodophenyl)-2,3,5,6,7,9-hexahydrothieno[3 2-b]quinolin-8(4H)-one, 1,1-dioxide] | 1.2 | 6.6 | 80 | –
6 | Cc1ccc(C2C3=C(CCCC3=O)NC3=C2S(=O)(=O)CC3)cc1C#N (single isomer, unassigned) [Example 155, 9-(3-cvano-4-methylphenyl)-2,3 5,6,7,9-hexahydrothieno[3,2-b]guinolin-8(4H)-one, 1,1-dioxide] | 0.026 | 5.4 | 98 | –
7 | O=C1CCC2=C1C(c1ccc(Cl)c([N+](=O)[O-])c1)C1=C(CCS1(=O)=O)N2 (single isomer, unassigned) [Example 161] | 0.23 | 6.3 | 96 | –
8 | O=C1CCCC2=C1C(c1ccc(F)c(-c3ccco3)c1)C1=C(CCS1(=O)=O)N2 (single isomer, unassigned) [Example 165, 9-[4-fluoro-3-(2-fMrIl)phenyl]-2,3,5,6,7,9-hexahydrothieno[3,2-b]quinolin-8(4H)-one, 1,1-dioxide] | 0.035 | 5.8 | 94 | –
9 | O=C1CCCC2=C1C(c1ccc(Br)s1)C1=C(CCS1(=O)=O)N2 (single isomer, unassigned) [Example 167, 9-(5-bromo-2-thienyl)-2,3,5,6,7,9-hexahydrothieno[3,2-b]quinolin-8(4H)-one, 1,1-dioxide] | 0.062 | 5.9 | 100 | –
10 | O=C1CCCC2=C1C(c1cc(Br)cs1)C1=C(CCS1(=O)=O)N2 (single isomer, unassigned) [Example 180, 9-(4-bromo-2-thienyl)-2,3 5,6,7,9-hexahydrothieno[3 2-b]quinolin-8(4H)-one 1,1-dioxide] | 0.036 | 5.5 | 71 | –
11 | O=C1CCC2=C1C(c1ccc(F)c(Br)c1)C1=C(CCCS1(=O)=O)N2 (single isomer, unassigned; (+)) [Example 91] | 0.0034 | 4.6 | 95 | –
12 | O=C1CCCC2=C1C(c1ccc(F)c(Br)c1)C1=C(CCCS1(=O)=O)N2 (single isomer, unassigned; (+)) [Example 93, (+)-I 0-(3-bromo-4-fluorophenyl)-3,4,6,7,8,10-hexahydro-2H-thiopyrano[3 2-b]quinolin-9(5H)-one, 1,1-dioxide] | 0.02 | 5.2 | 100 | –
13 | O=C1CCCC2=C1C(c1ccc(Cl)c(Cl)c1)C1=C(CCS1(=O)=O)N2 (single isomer, unassigned; (+)) [Example 95, (+)-9-(3,4-dichlorophenyl)-2,3,5,6,7,9-hexahydrothieno[3,2-b]quinolin-8(4H)-one, 1,1-dioxide] | 0.12 | 5.6 | 84 | –
14 | O=C1CCCC2=C1C(c1ccc3nonc3c1)C1=C(CCS1(=O)=O)N2 (single isomer, unassigned; (+)) [Example 97, (+)-9-(2. 1,3-benzoxadiazol-5-yl)-2,3,5,6,7,9-hexahydrothieno[3.2-b]quinolin-8(4H)-one, 11-dioxide] | 0.059 | 5.7 | 100 | –
15 | O=C1CCCC2=C1C(c1ccc(Cl)c([N+](=O)[O-])c1)C1=C(CCS1(=O)=O)N2 (single isomer, unassigned; (+)) [Example 99, (+)-9-(4-chloro-3-nitrophenyl)-2,3,5,6,7,9-hexahydrothieno[3.2-b]guinolin-8(4H)-one, 1,1-dioxide] | 0.18 | 6.2 | 100 | –
16 | N#Cc1cccc(C2C3=C(CCC3=O)NC3=C2S(=O)(=O)CC3)c1 (single isomer, unassigned; (+)) [Example 164] | 0.0071 | 5.0 | 94 | –
17 | O=C1CCC2=C1C(c1ccc(F)c(Br)c1)C1=C(CCS1(=O)=O)N2 (single isomer, unassigned; (-)) [Example 86] | 0.069 | 6.5 | 100 | –
18 | O=C1CCC2=C1C(c1ccc(F)c(Br)c1)C1=C(CCCS1(=O)=O)N2 (single isomer, unassigned; (-)) [Example 92] | 0.44 | 6.5 | – | 100
19 | O=C1CCCC2=C1C(c1ccc(F)c(Br)c1)C1=C(CCCS1(=O)=O)N2 (single isomer, unassigned; (-)) [Example 94, (−)-10-(3-bromo-4-fluorophenyl)-3,4,6,7,8,10-hexahydro-2H-thiopyrano[3,2-b]quinolin-9(5H)-one 1,1-dioxide] | 0.31 | 6.4 | – | 94
20 | O=C1CCCC2=C1C(c1ccc(Cl)c(Cl)c1)C1=C(CCS1(=O)=O)N2 (single isomer, unassigned; (-)) [Example 96, (−)-9-(3,4-dichlorophenyl)-2,3,5,6,7,9-hexahydrothieno[3,2-b]guinolin-8(4H)-one, 1,1-dioxide] | 0.37 | 6.5 | – | 97
21 | O=C1CCCC2=C1C(c1ccc3nonc3c1)C1=C(CCS1(=O)=O)N2 (single isomer, unassigned; (-)) [Example 98, (−)-9-(2.1 .3-benzoxadiazol-5-yl)-2,3.5,6.7,9-hexahydrothieno[3.2-b]guinolin-8(4H)-one, 1,1-dioxide] | 0.057 | 5.6 | – | 100
22 | O=C1CCCC2=C1C(c1ccc(Cl)c([N+](=O)[O-])c1)C1=C(CCS1(=O)=O)N2 (single isomer, unassigned; (-)) [Example 100, (−)-9-(4-chloro-3-nitrophenyl)-2,3,5,6,7,9-hexahydrothieno[3,2-b]quinolin-8(4H)-one, 1,1-dioxide] | 0.17 | 6.4 | – | 100
23 | O=C1CCCC2=C1C(c1ccc(F)c(Cl)c1)C1=C(CCS1(=O)=O)N2 (single isomer, unassigned; (-)) [Example 110, (−)-9-(3-chloro-4-fluorophenyl)-2,3,5,6,7,9-hexahydrothieno[3.2-b]quinolin-8(4H)-one, 1,1-dioxide] | 0.17 | 6.7 | – | 100
24 | N#Cc1cccc(C2C3=C(CCCC3=O)NC3=C2S(=O)(=O)CC3)c1 (single isomer, unassigned; (-)) [Example 114, (−)-9-(3-cyanophenyl)-2,3,5,6,7,9-hexahydrothieno[3,2-b]quinolin-8(4H)-one, 1,1-dioxide] | 0.014 | 4.9 | 97 | –
25 | O=C1CCCC2=C1C(c1ccc(F)c(C(F)(F)F)c1)C1=C(CCS1(=O)=O)N2 (single isomer, unassigned; (-)) [Example 139] | 0.13 | 6.0 | 100 | –
26 | O=C1CCCC2=C1C(c1ccc(Cl)c(C(F)(F)F)c1)C1=C(CCS1(=O)=O)N2 (single isomer, unassigned; (-)) [Example 172, (−)-9-[4-chloro-3-(trifluoromethyl)vhenyl]-2,3,5,6,79-hexahydrothieno[3,2-b]quinolin-8(4H)-one, 1,1-dioxide] | 0.12 | 6.2 | 100 | –
